Laboratory results published in PubChem BioAssay (NCI).
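Compound exposure: 48 hours, 5 concentrations, 96-well plates. GI50 marks 50% less growth. Definition used: TGI = concentration required for complete inhibition of growth.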

Key:
Assay in all cases: inhibition of tumour cell growth, NCI panel, 48 h
[1] = tested on: DU-145 prostate
[2] = tested on: OVCAR-5 ovarian
[3] = tested on: NCI-H522 lung
[4] = tested on: EKVX NSCLC
[5] = tested on: 786-0 renal
[6] = tested on: M14 melanoma
[7] = tested on: MALME-3M melanoma
[8] = tested on: OVCAR-4 ovarian
[9] = tested on: SK-MEL-28 melanoma
[10] = tested on: MOLT-4 leukemia
[11] = tested on: CCRF-CEM leukemia
[12] = tested on: NCI-H460 lung
[13] = tested on: HOP-92 NSCLC
[14] = tested on: UACC-257 melanoma
[15] = tested on: HCT-116 colon
[16] = tested on: HS 578T breast
[17] = tested on: KM12 colon
[18] = tested on: NCI-H226 lung
[19] = tested on: SF-539 CNS
[20] = tested on: SF-295 CNS
[21] = tested on: K-562 leukemia
[22] = tested on: SW-620 colon
[23] = tested on: UO-31 renal
[24] = tested on: HL-60(TB) leukemia
[25] = tested on: MDA-MB-468 breast
[26] = tested on: TK-10 renal
[27] = tested on: UACC-62 melanoma
[28] = tested on: T-47D breast
[29] = tested on: RPMI-8226 leukemia
[30] = tested on: RXF 393 renal
[31] = tested on: SK-MEL-2 melanoma
[32] = tested on: SNB-19 CNS
[33] = tested on: MDA-MB-435
[34] = tested on: HCC-2998 colon
[35] = tested on: PC-3 prostate
[36] = tested on: CAKI-1 renal
[37] = tested on: IGROV1 ovarian
[38] = tested on: A549 NSCLC
[39] = tested on: SN12C renal
[40] = tested on: SK-MEL-5 melanoma
[41] = tested on: MCF7 breast
[42] = tested on: SF-268 CNS
[43] = tested on: COLO 205 colon
[44] = tested on: MDA-MB-231 breast
[45] = tested on: OVCAR-3 ovarian
[46] = tested on: OVCAR-8 ovarian
[47] = tested on: HOP-62 NSCLC
[48] = tested on: HT29 colon
[49] = tested on: BT-549 breast
[50] = tested on: SK-OV-3 ovarian
[51] = tested on: HCT-15 colon
[52] = tested on: ACHN renal
[53] = tested on: SR leukemia
[54] = tested on: A498 renal
[55] = tested on: SNB-75 CNS
[56] = tested on: U251 CNS
[57] = tested on: NCI-H23 lung
[58] = tested on: LOX IMVI melanoma

O=C(/C=C/c1cccc(Br)c1)c1nc2ccccc2n1Cc1ccc(F)cc1
GI50 [1]: 12.6 µM
TGI [1]: 47.6 µM
GI50 [2]: 11.8 µM
TGI [2]: 27.7 µM
GI50 [3]: 10.9 µM
TGI [3]: 32.7 µM
GI50 [4]: 11.5 µM
TGI [4]: 28.6 µM
GI50 [5]: 11.8 µM
TGI [5]: 26.2 µM
GI50 [6]: 10.6 µM
TGI [6]: 26.1 µM
GI50 [7]: 11.6 µM
TGI [7]: 26 µM
GI50 [8]: 14.5 µM
TGI [8]: > 100 µM
GI50 [9]: 9.33 µM
TGI [9]: 23.1 µM
GI50 [10]: 3.85 µM
TGI [10]: > 100 µM
GI50 [11]: 3.83 µM
TGI [11]: > 100 µM
GI50 [12]: 4.65 µM
TGI [12]: 20 µM
GI50 [13]: 3.26 µM
TGI [13]: 35 µM
GI50 [14]: 10.7 µM
TGI [14]: 31.1 µM
GI50 [15]: 3.79 µM
TGI [15]: 14.2 µM
GI50 [16]: 9.74 µM
TGI [16]: > 100 µM
GI50 [17]: 5.52 µM
TGI [17]: 22.4 µM
GI50 [18]: 17 µM
TGI [18]: 44 µM
GI50 [19]: 13.6 µM
TGI [19]: 26.8 µM
GI50 [20]: 11.3 µM
TGI [20]: 27.1 µM
GI50 [21]: 3.75 µM
TGI [21]: > 100 µM
GI50 [22]: 3.8 µM
TGI [22]: 14.6 µM
GI50 [23]: 5.17 µM
TGI [23]: 18.9 µM
GI50 [24]: 4.06 µM
TGI [24]: 26.7 µM
GI50 [25]: 5.02 µM
TGI [25]: 18.2 µM
GI50 [26]: 17.1 µM
TGI [26]: 57.5 µM
GI50 [27]: 4.67 µM
TGI [27]: 18.2 µM
GI50 [28]: 5.01 µM
TGI [28]: 84.2 µM
GI50 [29]: 4.02 µM
TGI [29]: > 100 µM
GI50 [30]: 4.04 µM
TGI [30]: 15.9 µM
GI50 [31]: 11.6 µM
TGI [31]: 29.6 µM
GI50 [32]: 11.2 µM
TGI [32]: 25.3 µM
GI50 [33]: 3.87 µM
TGI [33]: 16.2 µM
GI50 [34]: 11.4 µM
TGI [34]: 24.2 µM
GI50 [35]: 6.42 µM
TGI [35]: 34.3 µM
GI50 [36]: 5.72 µM
TGI [36]: 32.5 µM
GI50 [37]: 8.02 µM
TGI [37]: 32.4 µM
GI50 [38]: 14.2 µM
TGI [38]: 96.3 µM
GI50 [39]: 14.9 µM
TGI [39]: 40.1 µM
GI50 [40]: 10.3 µM
TGI [40]: 23.2 µM
GI50 [41]: 2.83 µM
TGI [41]: 16.7 µM
GI50 [42]: 16.7 µM
TGI [42]: > 100 µM
GI50 [43]: 16.6 µM
TGI [43]: 36.2 µM
GI50 [44]: 6.59 µM
TGI [44]: 27.2 µM
GI50 [45]: 4.17 µM
TGI [45]: 16.9 µM
GI50 [46]: 5.05 µM
TGI [46]: 27.1 µM
GI50 [47]: 14.6 µM
TGI [47]: 38.8 µM
GI50 [48]: 5.23 µM
TGI [48]: 20.6 µM
GI50 [49]: 3.87 µM
TGI [49]: 16.5 µM
GI50 [50]: 62.4 µM
TGI [50]: > 100 µM
GI50 [51]: 3.65 µM
TGI [51]: 14.6 µM
GI50 [52]: 13.3 µM
TGI [52]: 40.6 µM
GI50 [53]: 4.73 µM
TGI [53]: > 100 µM
GI50 [54]: 54.3 µM
TGI [54]: > 100 µM
GI50 [55]: 3.24 µM
TGI [55]: 68.1 µM
GI50 [56]: 5.49 µM
TGI [56]: 20.3 µM
GI50 [57]: 9.04 µM
TGI [57]: 26 µM
GI50 [58]: 2.87 µM
TGI [58]: 10.5 µM
